The values below come from PMC11345830, “Exploration of Hydrazide-Based HDAC8 PROTACs for the Treatment of Hematological Malignancies and Solid Tumors” (Journal of Medicinal Chemistry, 2024).

One assay deals with HCT116 cells. Description: Cell viability MTS assay, HCT116. The assay is classed as cell-based. Particulars: Homo sapiens, HCT-116, 72 h, read-out: IC50 antiproliferative, HCT116. The procedure:
(§1) MTS assay was used to measure the cell viability. For single treatment, Jurkat, THP-1 and HEL (8000 cells/well), HCT116 and A549 (2000 cells/well) were seeded in 96-well plates in 100 μL complete medium. After overnight incubation, 50 μL of media containing various concentrations of compounds or the vehicle were added to each well. For cotreatment, cells were seeded in 96-well plates in 50 μL complete medium. After overnight incubation, 50 μL of Z-VAD-FMK, Nec-1, Fer-1, CQ, and other indicated compounds were added to each well. One hour later, 50 μL of media containing various concentrations of compounds were added to each well. After 72 h of treatment, 20 μL of CellTiter 96 AQueous One Solution reagent (Promega, Madison, USA) was added to each well according to manufacturer’s protocol. Plates were incubated at 37 °C for 1–2 h. The absorbance was determined at a wavelength of 490 nm using a Synergy H1 plate reader (Biotek, Winooski, VT, USA).
For orientation: Tetrazolium assays rely on reduction of a dye to a coloured formazan, in cell work by metabolically active cells.

A further assay relates to THP-1 cells. Description: Cell viability MTS assay, THP-1. In kind it is cell-based. Particulars: Homo sapiens, 72 h, read-out: IC50 antiproliferative, THP-1. The procedure: as §1
Another assay relates to A549 cells. Description: Cell viability MTS assay, A549. Particulars: Homo sapiens, 72 h, read-out: IC50 antiproliferative, A549. In kind it is cell-based. The procedure:
as §1

The target in a further assay is HDAC3/NcoR2 (Homo sapiens, UniProt O15379). Description: In vitro HDAC3 deacetylase inhibition assay. Particulars: read-out: HDAC3 IC50; recombinant enzyme, Boc-Lys(Ac)-AMC.
A further assay has as its target HDAC1 (Homo sapiens, UniProt Q13547). The assay is described as follows: In vitro HDAC1 deacetylase inhibition assay. Particulars: read-out: HDAC1 IC50; recombinant enzyme, Boc-Lys(Ac)-AMC.
The target of assay [1] is T1, HDAC8 (Homo sapiens, UniProt Q9BY41).
T1 sequence (Q9BY41 1-377): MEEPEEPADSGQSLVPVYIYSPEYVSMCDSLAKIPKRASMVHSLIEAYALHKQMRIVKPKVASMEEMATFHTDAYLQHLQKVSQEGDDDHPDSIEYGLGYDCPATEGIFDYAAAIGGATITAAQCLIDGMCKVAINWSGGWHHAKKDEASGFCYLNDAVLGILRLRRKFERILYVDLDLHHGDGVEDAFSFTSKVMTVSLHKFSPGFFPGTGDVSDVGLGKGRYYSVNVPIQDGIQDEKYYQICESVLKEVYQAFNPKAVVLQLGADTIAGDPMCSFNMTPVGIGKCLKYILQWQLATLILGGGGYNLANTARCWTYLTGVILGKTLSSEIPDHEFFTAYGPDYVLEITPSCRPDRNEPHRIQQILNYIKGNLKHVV
The assay is described as follows: In vitro HDAC8 deacetylase inhibition assay. Particulars: read-out: HDAC8 IC50; recombinant enzyme, Boc-Lys(TFA)-AMC.
Experimental: (§2) After a following incubation at 37 °C for 20 min, the fluorescence was measured on a Synergy H1 Platereader (BioTek, USA) with an excitation wavelength of 370 nm and an emission wavelength of 460 nm. Nonlinear regression was used for the determination of the IC50 of each compound.

In a further assay the test system is acetyl-SMC3 (Ac-SMC3). The assay is described as follows: Ac-SMC3 level in Jurkat cells, Western blot. In kind it is cell-based. Particulars: 1 μM, 6 h. A general note: A western blot detects proteins with antibodies after separation by electrophoresis.
Another assay has as its target HDAC2 (Homo sapiens, UniProt Q92769). The assay is described as follows: In vitro HDAC2 deacetylase inhibition assay. Particulars: read-out: HDAC2 IC50; recombinant enzyme, Boc-Lys(Ac)-AMC.
A further assay relates to Jurkat cells. The assay is described as follows: Cell viability MTS assay, Jurkat. In kind it is cell-based. Particulars: Homo sapiens, Jurkat; 72 h, MTS assay; read-out: IC50 antiproliferative, Jurkat. The procedure:
as §1

The target in assay [2] is T2, HDAC6 (Homo sapiens, UniProt Q9UBN7).
T2 sequence (Q9UBN7 1-1215): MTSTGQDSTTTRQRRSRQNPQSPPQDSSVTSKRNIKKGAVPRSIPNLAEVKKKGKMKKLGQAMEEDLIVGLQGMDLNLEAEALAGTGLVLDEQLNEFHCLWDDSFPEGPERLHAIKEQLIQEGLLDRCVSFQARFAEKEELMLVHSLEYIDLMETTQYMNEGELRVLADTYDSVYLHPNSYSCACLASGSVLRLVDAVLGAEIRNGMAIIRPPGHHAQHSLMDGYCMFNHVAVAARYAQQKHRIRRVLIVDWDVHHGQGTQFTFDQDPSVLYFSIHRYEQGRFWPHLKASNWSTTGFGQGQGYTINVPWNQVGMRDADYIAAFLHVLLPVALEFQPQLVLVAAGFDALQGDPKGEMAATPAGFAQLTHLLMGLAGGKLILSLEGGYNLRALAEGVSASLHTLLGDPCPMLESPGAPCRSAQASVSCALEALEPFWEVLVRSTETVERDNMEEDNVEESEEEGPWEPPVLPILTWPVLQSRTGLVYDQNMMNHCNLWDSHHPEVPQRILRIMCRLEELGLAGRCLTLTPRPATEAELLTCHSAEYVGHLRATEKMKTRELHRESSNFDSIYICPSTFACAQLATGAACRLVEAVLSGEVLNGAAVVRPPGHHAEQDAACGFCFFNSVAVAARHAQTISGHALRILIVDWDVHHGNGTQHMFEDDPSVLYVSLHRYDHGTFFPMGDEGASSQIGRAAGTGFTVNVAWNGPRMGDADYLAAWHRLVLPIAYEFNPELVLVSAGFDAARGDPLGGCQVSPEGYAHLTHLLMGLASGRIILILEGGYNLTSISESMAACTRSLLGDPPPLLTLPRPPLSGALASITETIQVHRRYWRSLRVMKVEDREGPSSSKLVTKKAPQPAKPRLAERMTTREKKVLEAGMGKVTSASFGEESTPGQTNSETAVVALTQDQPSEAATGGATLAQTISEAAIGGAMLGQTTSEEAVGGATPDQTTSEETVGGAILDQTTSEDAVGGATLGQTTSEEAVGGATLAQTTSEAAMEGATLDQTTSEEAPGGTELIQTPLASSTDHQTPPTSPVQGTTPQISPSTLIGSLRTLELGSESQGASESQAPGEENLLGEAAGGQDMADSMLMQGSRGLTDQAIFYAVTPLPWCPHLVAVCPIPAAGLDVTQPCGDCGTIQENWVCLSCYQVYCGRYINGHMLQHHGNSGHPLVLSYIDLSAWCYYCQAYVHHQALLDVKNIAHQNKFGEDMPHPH
Set-up: endogenous in cells; host or cells: Jurkat. Particulars: Jurkat cells; cited from earlier work.

The target of assay [3] is T2, HDAC6. Set-up: endogenous in cells. Particulars: MDA-MB-231 cells; cited from earlier work.
Assay [4] has as its target T1, HDAC8. The arrangement: endogenous in cells; host or cells: A549; method as in PMID 36516047. Particulars: A549 cells; cited from earlier work.

Where two headings read alike, the source gives them in different places.

Sequence of HDAC3/NcoR2 (O15379 whole entry): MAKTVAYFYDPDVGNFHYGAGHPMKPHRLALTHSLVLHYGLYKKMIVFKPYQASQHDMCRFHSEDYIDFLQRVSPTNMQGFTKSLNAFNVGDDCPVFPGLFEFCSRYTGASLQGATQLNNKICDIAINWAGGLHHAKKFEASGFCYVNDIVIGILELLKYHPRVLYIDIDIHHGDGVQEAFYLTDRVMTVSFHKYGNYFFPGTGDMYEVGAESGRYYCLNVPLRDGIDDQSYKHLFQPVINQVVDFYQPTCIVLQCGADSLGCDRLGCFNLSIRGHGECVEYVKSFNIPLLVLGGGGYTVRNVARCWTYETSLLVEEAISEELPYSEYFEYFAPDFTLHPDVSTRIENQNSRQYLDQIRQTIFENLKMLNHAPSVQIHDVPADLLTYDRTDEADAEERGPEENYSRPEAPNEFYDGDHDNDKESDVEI
Sequence of HDAC3/NcoR2 (Q9Y618 395-489 partner limits assumed): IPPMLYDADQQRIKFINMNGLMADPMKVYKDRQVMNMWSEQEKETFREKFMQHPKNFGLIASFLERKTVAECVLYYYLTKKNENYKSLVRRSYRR
Sequence of HDAC1 (Q13547 whole entry): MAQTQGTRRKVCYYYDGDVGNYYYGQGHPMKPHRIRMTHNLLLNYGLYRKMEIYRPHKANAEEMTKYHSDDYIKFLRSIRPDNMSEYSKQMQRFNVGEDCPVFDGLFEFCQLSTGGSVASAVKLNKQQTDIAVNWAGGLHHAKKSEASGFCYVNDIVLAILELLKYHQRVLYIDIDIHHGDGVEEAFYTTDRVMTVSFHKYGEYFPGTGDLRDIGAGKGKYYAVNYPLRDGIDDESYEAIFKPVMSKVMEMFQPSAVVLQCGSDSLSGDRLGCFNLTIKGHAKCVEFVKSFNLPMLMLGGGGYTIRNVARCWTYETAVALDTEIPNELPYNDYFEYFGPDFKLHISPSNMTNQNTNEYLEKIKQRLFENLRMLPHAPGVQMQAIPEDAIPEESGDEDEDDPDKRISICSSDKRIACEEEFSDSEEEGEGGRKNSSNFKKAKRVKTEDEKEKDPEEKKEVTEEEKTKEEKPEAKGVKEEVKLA
Sequence of HDAC2 (Q92769 whole entry): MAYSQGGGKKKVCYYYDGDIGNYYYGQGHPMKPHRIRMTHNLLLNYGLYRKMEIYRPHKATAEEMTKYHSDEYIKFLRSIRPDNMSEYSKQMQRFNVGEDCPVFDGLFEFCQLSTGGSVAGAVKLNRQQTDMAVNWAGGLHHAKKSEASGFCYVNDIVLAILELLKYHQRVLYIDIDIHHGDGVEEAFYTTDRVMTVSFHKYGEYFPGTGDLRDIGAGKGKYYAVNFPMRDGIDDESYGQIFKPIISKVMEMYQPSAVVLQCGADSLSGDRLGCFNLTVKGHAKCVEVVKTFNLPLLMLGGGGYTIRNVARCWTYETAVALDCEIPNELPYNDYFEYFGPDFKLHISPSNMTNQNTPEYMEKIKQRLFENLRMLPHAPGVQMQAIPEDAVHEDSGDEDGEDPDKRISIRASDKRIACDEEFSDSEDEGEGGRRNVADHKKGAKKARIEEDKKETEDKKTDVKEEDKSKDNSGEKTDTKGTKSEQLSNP
Experimental for HDAC1: as §2
Experimental for HDAC2: as §2
Experimental for HDAC3/NcoR2: as §2

The term IC50 denotes the concentration at which inhibition is half-maximal. Regarding `CCCCCCNNC(=O)c1ccc(CNC(C)=O)cc1` [Compound 6, N-(4-(2-Hexylhydrazine-1-carbonyl)benzyl)acetamide], the IC50 in the assay with HCT116 cells is > 33.3 µM; in the assay on THP-1 cells, > 33.3 µM; in the assay with A549 cells, > 33.3 µM; on HDAC3/NcoR2, 9.5 ± 0.7 µM; at HDAC1, 0.94 ± 0.05 µM; at HDAC8 [1], 0.6 ± 0.08 µM. In addition, the figures for the IC50 on HDAC2 and with Jurkat cells were 8 ± 1 µM and > 33.3 µM, respectively. Moreover, the “level of Ac-SMC3 at 1 μM (in words)” value with acetyl-SMC3 (Ac-SMC3) is “neither 1 μM of pan-HDAC inhibitor SAHA nor 1 μM of HDAC8 inhibitor 6 increased the level of Ac-SMC3”.
For the molecule `COc1ccc(C(=O)NO)cc1OCc1ccc(C(=O)NCCCCCCCCNc2cccc3c2C(=O)N(C2CCC(=O)NC2=O)C3=O)cc1` (stereo not shown) [PROTAC 4], the concentration for half-maximal inhibition (IC50) is 8 ± 0.5 µM in the assay on HCT116 cells, 10.8 ± 0.9 µM in the assay with THP-1 cells, 15.2 ± 3.3 µM in the assay with A549 cells and 4 ± 0.8 µM with Jurkat cells. For the same molecule, the figures for the DC50 on HDAC6 [2] and at HDAC6 [3] were 0.0785 µM and 0.038 µM, respectively.
On to `O=C1CCC(N2C(=O)c3cccc(NCc4cn(CCOCCOc5ccc(Cn6ccc7ccc(C(=O)NO)cc76)cc5)nn4)c3C2=O)C(=O)N1` (stereo not shown) [PROTAC 5], for which the DC50 on HDAC8 [4] was 0.58 µM.
